{
  "source": "patent US20230065740A1",
  "about": "“CYCLIN-DEPENDENT KINASE INHIBITORS” (SPV THERAPEUTICS INC., priority 2018, published 2023)",
  "key": {"CDK6-CYCLIND3": {"target": "T1, CDK6-CYCLIND3 (Homo sapiens, UniProt Q00534)", "T1 construct": "purchased Carna", "T1 sequence (Q00534 whole entry)": "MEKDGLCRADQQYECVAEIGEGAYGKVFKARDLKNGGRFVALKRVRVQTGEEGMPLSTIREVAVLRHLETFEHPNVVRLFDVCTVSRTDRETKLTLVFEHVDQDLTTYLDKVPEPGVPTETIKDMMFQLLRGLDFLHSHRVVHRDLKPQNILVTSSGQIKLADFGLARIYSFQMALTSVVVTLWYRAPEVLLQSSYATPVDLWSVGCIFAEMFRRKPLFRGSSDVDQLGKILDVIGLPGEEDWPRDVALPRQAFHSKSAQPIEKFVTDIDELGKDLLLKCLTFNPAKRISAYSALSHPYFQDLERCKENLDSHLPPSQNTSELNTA", "T1 sequence (P30281 whole entry partner)": "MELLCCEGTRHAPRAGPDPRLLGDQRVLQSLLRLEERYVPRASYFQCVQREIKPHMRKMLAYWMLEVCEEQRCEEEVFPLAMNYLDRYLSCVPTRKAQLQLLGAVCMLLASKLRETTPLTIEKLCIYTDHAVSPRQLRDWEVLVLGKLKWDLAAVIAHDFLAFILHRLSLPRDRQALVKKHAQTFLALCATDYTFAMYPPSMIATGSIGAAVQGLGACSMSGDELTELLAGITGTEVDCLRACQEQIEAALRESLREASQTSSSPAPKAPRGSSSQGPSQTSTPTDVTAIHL", "test": "Microfluidic LabChip kinase inhibition assay, CDK6-CyclinD3", "assay_type": "biochemical", "settings": "Table 2; 300 μM ATP, 2 nM enzyme; read-out: CDK6 IC50"}, "CDK4-CYCLIND1": {"target": "CDK4-CYCLIND1 (Homo sapiens, UniProt P11802)", "sequence (P11802 whole entry)": "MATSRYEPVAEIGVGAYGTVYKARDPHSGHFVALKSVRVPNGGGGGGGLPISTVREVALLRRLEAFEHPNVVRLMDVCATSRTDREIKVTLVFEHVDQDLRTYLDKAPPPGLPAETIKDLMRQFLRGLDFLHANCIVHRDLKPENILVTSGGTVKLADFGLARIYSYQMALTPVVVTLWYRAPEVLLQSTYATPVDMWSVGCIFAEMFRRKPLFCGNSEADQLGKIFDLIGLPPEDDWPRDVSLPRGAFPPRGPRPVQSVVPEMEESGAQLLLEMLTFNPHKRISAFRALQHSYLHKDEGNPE", "sequence (P24385 whole entry partner)": "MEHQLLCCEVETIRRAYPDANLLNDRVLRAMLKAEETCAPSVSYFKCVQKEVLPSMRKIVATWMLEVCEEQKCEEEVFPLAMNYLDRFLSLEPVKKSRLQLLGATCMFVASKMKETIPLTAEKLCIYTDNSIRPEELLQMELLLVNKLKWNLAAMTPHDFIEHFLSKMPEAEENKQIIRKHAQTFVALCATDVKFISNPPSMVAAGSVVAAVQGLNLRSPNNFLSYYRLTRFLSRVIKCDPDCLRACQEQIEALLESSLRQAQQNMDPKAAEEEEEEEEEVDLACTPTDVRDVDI", "test": "Microfluidic LabChip kinase inhibition assay, CDK4-CyclinD1", "settings": "CDK4 IC50 (μM), Table 2; 200 μM ATP, 1 nM enzyme"}},
  "data": [
    {"smiles": "O=C1NCCC12Cc1cnc(Nc3ccc(N4CCC(N5CCOCC5)CC4)nc3)nc1N2C1CCCC1", "note": "(stereo not shown) [Compound C96, 7′-cyclopentyl-2′-((6-(4-morpholinopiperidin-1-yl)pyridin-3-yl)amino)-5′,7′-dihydrospiro[pyrrolidine-3,6′-pyrrolo[2,3-d]pyrimidin]-2-one]", "values": [
      {"measurement": "IC50", "setting": "CDK6-CYCLIND3", "value": 488, "unit": "nM"},
      {"measurement": "IC50", "setting": "CDK4-CYCLIND1", "value": 0.142, "unit": "µM"}
    ]},
    {"smiles": "COc1cc(Nc2ncc3c(n2)N(C2CCCC2)C2(CCNC2=O)C3)ccc1N1CCN(C(C)C)CC1", "note": "(stereo not shown) [Compound C62, 7′-cyclopentyl-2′-((4-(4-isopropylpiperazin-1-yl)-3-methoxyphenyl)amino)-5′,7′-dihydrospiro[pyrrolidine-3,6′-pyrrolo[2,3-d]pyrimidin]-2-one]", "values": [
      {"measurement": "IC50", "setting": "CDK6-CYCLIND3", "value": 1950, "unit": "nM"},
      {"measurement": "IC50", "setting": "CDK4-CYCLIND1", "value": 0.288, "unit": "µM"}
    ]},
    {"smiles": "CC(C)N1CCN(c2ccc(Nc3ncc4c(n3)N(C3CCCC3)C3(CCNC3=O)C4)nc2)CC1", "note": "(stereo not shown) [Compound C38, 7′-cyclopentyl-2′-((5-(4-isopropylpiperazin-1-yl)pyridin-2-yl)amino)-5′,7′-dihydrospiro[pyrrolidine-3,6′-pyrrolo[2,3-d]pyrimidin]-2-one]", "values": [
      {"measurement": "IC50", "setting": "CDK6-CYCLIND3", "value": 2990, "unit": "nM"},
      {"measurement": "IC50", "setting": "CDK4-CYCLIND1", "value": 0.631, "unit": "µM"}
    ]},
    {"smiles": "CC(C)N1CCN(c2ccc(Nc3ncc4c(n3)N(C3CCCC3)C3(CCCNC3=O)C4)nc2)CC1", "note": "(stereo not shown) [Compound C37, 7′-cyclopentyl-2′-((5-(4-isopropylpiperazin-1-yl)pyridin-2-yl)amino)-5′,7′-dihydrospiro[piperidine-3,6′-pyrrolo[2,3-d]pyrimidin]-2-one]", "values": [
      {"measurement": "IC50", "setting": "CDK6-CYCLIND3", "value": "> 30000", "unit": "nM"},
      {"measurement": "IC50", "setting": "CDK4-CYCLIND1", "value": "> 30", "unit": "µM"}
    ]},
    {"smiles": "O=C1CC2(Cc3cnc(Nc4ccc(N5CCNCC5)nc4)nc3N2C2CCCC2)C(=O)N1", "note": "(stereo not shown) [Compound C83, 7′-cyclopentyl-2′-((6-(piperazin-1-yl)pyridin-3-yl)amino)-5′,7′-dihydrospiro[pyrrolidine-3,6′-pyrrolo[2,3-d]pyrimidine]-2,5-dione]", "values": [
      {"measurement": "IC50", "setting": "CDK6-CYCLIND3", "value": 168, "unit": "nM"},
      {"measurement": "IC50", "setting": "CDK4-CYCLIND1", "value": 0.0516, "unit": "µM"}
    ]},
    {"smiles": "CN1C(=O)CC2(Cc3cnc(Nc4ccc(N5CCNCC5)c(F)c4)nc3N2C2CCCC2)C1=O", "note": "(stereo not shown) [Compound C71, 7′-cyclopentyl-2′-((3-fluoro-4-(piperazin-1-yl)phenyl)amino)-1-methyl-5′,7′-dihydrospiro[pyrrolidine-3,6′-pyrrolo[2,3-d]pyrimidine]-2,5-dione]", "values": [
      {"measurement": "IC50", "setting": "CDK6-CYCLIND3", "value": 11700, "unit": "nM"},
      {"measurement": "IC50", "setting": "CDK4-CYCLIND1", "value": 4.94, "unit": "µM"}
    ]},
    {"smiles": "CC(C)N1CCN(c2ccc(Nc3ncc4c(n3)N(C3CCCC3)C3(CCNC3=O)C4)c(F)c2)CC1", "note": "(stereo not shown) [Compound C52, 7′-cyclopentyl-2′-((2-fluoro-4-(4-isopropylpiperazin-1-yl)phenyl)amino)-5′,7′-dihydrospiro[pyrrolidine-3,6′-pyrrolo[2,3-d]pyrimidin]-2-one]", "values": [
      {"measurement": "IC50", "setting": "CDK6-CYCLIND3", "value": "> 30000", "unit": "nM"},
      {"measurement": "IC50", "setting": "CDK4-CYCLIND1", "value": "> 30", "unit": "µM"}
    ]},
    {"smiles": "CN(C)CCOc1ccc(Nc2ncc3c(n2)N(C2CCCC2)C2(CC(=O)NC2=O)C3)cn1", "note": "(stereo not shown) [Compound C88, 7′-cyclopentyl-2′-((6-(2-(dimethylamino)ethoxy)pyridin-3-yl)amino)-5′,7′-dihydrospiro[pyrrolidine-3,6′-pyrrolo[2,3-d]pyrimidine]-2,5-dione]", "values": [
      {"measurement": "IC50", "setting": "CDK6-CYCLIND3", "value": 359, "unit": "nM"},
      {"measurement": "IC50", "setting": "CDK4-CYCLIND1", "value": 0.097, "unit": "µM"}
    ]},
    {"smiles": "CN(C)CCOc1ccc(Nc2ncc3c(n2)N(C2CCCC2)C2(CCNC2=O)C3)cn1", "note": "(stereo not shown) [Compound C61, 7′-cyclopentyl-2′-((6-(2-(dimethylamino)ethoxy)pyridin-3-yl)amino)-5′,7′-dihydrospiro[pyrrolidine-3,6′-pyrrolo[2,3-d]pyrimidin]-2-one]", "values": [
      {"measurement": "IC50", "setting": "CDK6-CYCLIND3", "value": 793, "unit": "nM"},
      {"measurement": "IC50", "setting": "CDK4-CYCLIND1", "value": 0.19, "unit": "µM"}
    ]},
    {"smiles": "CN1CCCC2(Cc3cnc(Nc4cc(C(F)(F)F)c(N5CCNCC5)cn4)nc3N2C2CCCC2)C1=O", "note": "(stereo not shown) [Compound C14, 7′-cyclopentyl-1-methyl-2′-((5-(piperazin-1-yl)-4-(trifluoromethyl)pyridin-2-yl)amino)-5′,7′-dihydrospiro[piperidine-3,6′-pyrrolo[2,3-d]pyrimidin]-2-one]", "values": [
      {"measurement": "IC50", "setting": "CDK6-CYCLIND3", "value": "> 30000", "unit": "nM"},
      {"measurement": "IC50", "setting": "CDK4-CYCLIND1", "value": "> 30", "unit": "µM"}
    ]},
    {"smiles": "CN1CCN(c2cnc(Nc3ncc4c(n3)N(C3CCCC3)C3(CCNC3=O)C4)cc2C(F)(F)F)CC1", "note": "(stereo not shown) [Compound C18, 7′-cyclopentyl-2′-((5-(4-methylpiperazin-1-yl)-4-(trifluoromethyl)pyridin-2-yl)amino)-5′,7′-dihydrospiro[pyrrolidine-3,6′-pyrrolo[2,3-d]pyrimidin]-2-one]", "values": [
      {"measurement": "IC50", "setting": "CDK6-CYCLIND3", "value": "> 30000", "unit": "nM"},
      {"measurement": "IC50", "setting": "CDK4-CYCLIND1", "value": "> 30", "unit": "µM"}
    ]},
    {"smiles": "CN1CCN(c2ccc(Nc3ncc4c(n3)N(C3CCCC3)C3(CC(=O)NC3=O)C4)nc2)CC1", "note": "(stereo not shown) [Compound C75, 7′-cyclopentyl-2′-((5-(4-methylpiperazin-1-yl)pyridin-2-yl)amino)-5′,7′-dihydrospiro[pyrrolidine-3,6′-pyrrolo[2,3-d]pyrimidine]-2,5-dione]", "values": [
      {"measurement": "IC50", "setting": "CDK6-CYCLIND3", "value": 34.8, "unit": "nM"},
      {"measurement": "IC50", "setting": "CDK4-CYCLIND1", "value": 0.0203, "unit": "µM"}
    ]},
    {"smiles": "CC(C)N1CCN(c2ccc(Nc3ncc4c(n3)N(C3CCCC3)C3(CC(=O)NC3=O)C4)cc2)CC1", "note": "(stereo not shown) [Compound C79, 7′-cyclopentyl-2′-((4-(4-isopropylpiperazin-1-yl)phenyl)amino)-5′,7′-dihydrospiro[pyrrolidine-3,6′-pyrrolo[2,3-d]pyrimidine]-2,5-dione]", "values": [
      {"measurement": "IC50", "setting": "CDK6-CYCLIND3", "value": 130, "unit": "nM"},
      {"measurement": "IC50", "setting": "CDK4-CYCLIND1", "value": 0.021, "unit": "µM"}
    ]},
    {"smiles": "O=C1NCCCC12Cc1cnc(Nc3cc(C(F)(F)F)c(N4CCNCC4)cn3)nc1N2C1CCCC1", "note": "(stereo not shown) [Compound C44, 7′-cyclopentyl-2′-((5-(piperazin-1-yl)-4-(trifluoromethyl)pyridin-2-yl)amino)-5′,7′-dihydrospiro[piperidine-3,6′-pyrrolo[2,3-d]pyrimidin]-2-one]", "values": [
      {"measurement": "IC50", "setting": "CDK6-CYCLIND3", "value": "> 30000", "unit": "nM"},
      {"measurement": "IC50", "setting": "CDK4-CYCLIND1", "value": "> 30", "unit": "µM"}
    ]},
    {"smiles": "CC(C)N1CC=C(c2ccc(Nc3ncc4c(n3)N(C3CCCC3)C3(CCNC3=O)C4)nc2)CC1", "note": "(stereo not shown) [Compound C57, 7′-cyclopentyl-2′-((1′-isopropyl-1′,2′,3′,6′-tetrahydro-[3,4′-bipyridin]-6-yl)amino)-5′,7′-dihydrospiro[pyrrolidine-3,6′-pyrrolo[2,3-d]pyrimidin]-2-one]", "values": [
      {"measurement": "IC50", "setting": "CDK6-CYCLIND3", "value": 952, "unit": "nM"},
      {"measurement": "IC50", "setting": "CDK4-CYCLIND1", "value": 0.387, "unit": "µM"}
    ]},
    {"smiles": "CN1CCN(c2ccc(Nc3ncc4c(n3)N(C3CCCC3)C3(CCNC3=O)C4)cn2)CC1", "note": "(stereo not shown) [Compound C54, 7′-cyclopentyl-2′-((6-(4-methylpiperazin-1-yl)pyridin-3-yl)amino)-5′,7′-dihydrospiro[pyrrolidine-3,6′-pyrrolo[2,3-d]pyrimidin]-2-one]", "values": [
      {"measurement": "IC50", "setting": "CDK6-CYCLIND3", "value": 414, "unit": "nM"},
      {"measurement": "IC50", "setting": "CDK4-CYCLIND1", "value": 0.0926, "unit": "µM"}
    ]},
    {"smiles": "O=C1NCCCC12Cc1cnc(Nc3ccc(N4CCNCC4)cn3)nc1N2C1CCCC1", "note": "(stereo not shown) [Compound C35, 7′-cyclopentyl-2′-((5-(piperazin-1-yl)pyridin-2-yl)amino)-5′,7′-dihydrospiro[piperidine-3,6′-pyrrolo[2,3-d]pyrimidin]-2-one]", "values": [
      {"measurement": "IC50", "setting": "CDK6-CYCLIND3", "value": "> 30000", "unit": "nM"},
      {"measurement": "IC50", "setting": "CDK4-CYCLIND1", "value": 19.6, "unit": "µM"}
    ]},
    {"smiles": "CC(C)N1CCN(c2ccc(Nc3ncc4c(n3)N(C3CCCC3)C(=O)C43CCNC3=O)cc2F)CC1", "note": "(stereo not shown) [Compound C104, 7′-cyclopentyl-2′-((3-fluoro-4-(4-isopropylpiperazin-1-yl)phenyl)amino)spiro[pyrrolidine-3,5′-pyrrolo[2,3-d]pyrimidine]-2,6′(7′H)-dione]", "values": [
      {"measurement": "IC50", "setting": "CDK4-CYCLIND1", "value": 51, "unit": "µM"}
    ]},
    {"smiles": "CN1CCN(c2ccc(Nc3ncc4c(n3)N(C3CCCC3)CC43CCNC3=O)nc2)CC1", "note": "(stereo not shown) [Compound C98, 7′-cyclopentyl-2′-((5-(4-methylpiperazin-1-yl)pyridin-2-yl)amino)-6′,7′-dihydrospiro[pyrrolidine-3,5′-pyrrolo[2,3-d]pyrimidin]-2-one]", "values": [
      {"measurement": "IC50", "setting": "CDK4-CYCLIND1", "value": 57.6, "unit": "µM"}
    ]},
    {"smiles": "O=C1NCCC12C(=O)N(C1CCCC1)c1nc(Nc3ccc(N4CCNCC4)cn3)ncc12", "note": "(stereo not shown) [Compound C99, 7′-cyclopentyl-2′-((5-(piperazin-1-yl)pyridin-2-yl)amino)spiro[pyrrolidine-3,5′-pyrrolo[2,3-d]pyrimidine]-2,6′(7′H)-dione]", "values": [
      {"measurement": "IC50", "setting": "CDK4-CYCLIND1", "value": 59.4, "unit": "µM"}
    ]}
  ]
}
